Key:
Format in all cases: in vivo
Echinochloa crus-galli [1] = test: Test Example 1: herbicidal effect test by treatment of rice paddy soil (immediately after seeding); conditions: 120 g/10a active ingredient, dry weight vs untreated area, 14 days after treatment
Summary of the method: (§1)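 Pre-emergence paddy water application, 120 g a.i./10 ares, applied immediately post-seeding into ~3 cm flood; glasshouse; duplicate pots; dry weight at 14 d → % inhibition = (1 − treated/untreated) × 100.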

Scirpus juncoides [2] = test: as above; conditions: 120 g/10a active ingredient, dry weight vs untreated area, 14 days after treatment
Summary of the method: as §1

[3] = system: broad leaf weeds (Lindernia pyxidaria and Monochoria vaginalis); test: as above; conditions: 120 g/10a active ingredient, dry weight vs untreated area, 14 days after treatment
Summary of the method: as §1

Echinochloa crus-galli [4] = test: Test Example 2: herbicidal effect test by treatment during growing period in paddy rice cultivation (seven days after seeding); conditions: 120 g/10a active ingredient, assessed 14 days after treatment, dry weight vs untreated area
Summary of the method: (§2)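 Paddy soil in Wagner pots with compound fertilizer, puddled; 30 seeds per species sown at 0–1 cm, flooded ~3 cm, greenhouse. Seven days after seeding, water-diluted emulsions were dropped into the water at 120 g active ingredient per 10 ares. Duplicate pots; herbicidal rate from dry weight versus untreated, 14 days after treatment.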

Scirpus juncoides [5] = test: as above; conditions: 120 g/10a active ingredient, assessed 14 days after treatment, dry weight vs untreated area
Summary of the method: as §2

[6] = system: broad leaf weeds (Lindernia pyxidaria and Monochoria vaginalis); test: as above; conditions: 120 g/10a active ingredient, assessed 14 days after treatment, dry weight vs untreated area
Summary of the method: as §2

Amaranthus viridis [7] = test: Test Example 3: herbicidal effect test by treatment of dry field farming soil (one day after seeding); conditions: 120 g/10a active ingredient, evaluated 14 days after treatment
Summary of the method: (§3)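 Pre-emergence soil treatment: alluvial dry-field soil, 20 seeds per species mixed into top 1 cm, emulsion diluted in water sprayed one day after seeding at 100 L per 10 ares (120 g active ingredient per 10 ares). Duplicate pots; herbicidal rate (%) from dry weight vs untreated at 14 days.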

Chenopodium album [8] = test: as above; conditions: 120 g/10a active ingredient, evaluated 14 days after treatment
Summary of the method: as §3

Echinochloa crus-galli [9] = test: as above; conditions: 120 g/10a active ingredient, evaluated 14 days after treatment
Summary of the method: as §3

southern crabgrass [10] = test: as above; conditions: 120 g/10a active ingredient, evaluated 14 days after treatment
Summary of the method: as §3

Amaranthus viridis [11] = test: Test Example 4: herbicidal effect test by treatment of leave and stem in dry field farming (seven days after seeding); conditions: 120 g/10a active ingredient; emulsion sprayed seven days after seeding; evaluated 14 days after treatment
Summary of the method: (§4)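 Twenty seeds per species were mixed into the top 1 cm of alluvial soil in 36 cm^2 pots; emulsions were sprayed seven days after seeding at 100 L per 10 ares (120 g active ingredient per 10 ares). Herbicidal rate (%) = {1 − treated/untreated mean dry weight} × 100, 14 days after treatment, duplicate.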

Chenopodium album [12] = test: as above; conditions: 120 g/10a active ingredient; emulsion sprayed seven days after seeding; evaluated 14 days after treatment
Summary of the method: as §4

Echinochloa crus-galli [13] = test: as above; conditions: 120 g/10a active ingredient; emulsion sprayed seven days after seeding; evaluated 14 days after treatment
Summary of the method: as §4

southern crabgrass [14] = test: as above; conditions: 120 g/10a active ingredient; emulsion sprayed seven days after seeding; evaluated 14 days after treatment
Summary of the method: as §4

SMILES	Herbicidal rate (%) Echinochloa crus-galli (Echinochloa crus-galli [1]) [%]	Herbicidal rate (%) Scirpus juncoides (Scirpus juncoides [2]) [%]	Herbicidal rate (%) Lindernia pyxidaria [3] [%]	Herbicidal rate (%) Monochoria vaginalis [3] [%]	Herbicidal rate (%) Echinochloa crus-galli (Echinochloa crus-galli [4]) [%]	Herbicidal rate (%) Scirpus juncoides (Scirpus juncoides [5]) [%]	Herbicidal rate (%) Lindernia pyxidaria [6] [%]	Herbicidal rate (%) Monochoria vaginalis [6] [%]	herbicidal rate, Amaranthus viridis (Amaranthus viridis [7]) [%]	herbicidal rate, Chenopodium album (Chenopodium album [8]) [%]	herbicidal rate, Echinochloa crus-galli (Echinochloa crus-galli [9]) [%]	herbicidal rate, southern crabgrass (southern crabgrass [10]) [%]	herbicidal effect (herbicidal rate), Amaranthus viridis (Amaranthus viridis [11]) [%]	herbicidal effect (herbicidal rate), Chenopodium album (Chenopodium album [12]) [%]	herbicidal effect (herbicidal rate), Echinochloa crus-galli (Echinochloa crus-galli [13]) [%]	herbicidal effect (herbicidal rate), southern crabgrass (southern crabgrass [14]) [%]
CCCC(C)n1oc(=O)c(Cc2ccccc2N(S(C)(=O)=O)S(=O)(=O)C(F)(F)F)c1C (centres unmarked) [Compound 1-894]	100	100	80	60	90	80	70	70	70	60	90	90	60	60	90	90
C=CCOC(=O)N(c1ccccc1Cc1c(C)n(CC(C)C)oc1=O)S(=O)(=O)C(F)(F)F [Compound 1-707]	90	90	90	90	90	90	90	90	90	90	90	90	40	40	90	90
CCOC(=O)N(c1ccccc1Cc1c(C)n(C(C)(C)C)oc1=O)S(=O)(=O)C(F)(F)F [Compound 1-604]	90	90	90	90	90	90	90	90	90	90	90	90	40	40	90	90
CCOC(=O)N(c1ccccc1Cc1c(C)n(CC(C)(C)C)oc1=O)S(=O)(=O)C(F)(F)F [Compound 1-609]	90	90	90	90	90	90	90	90	90	90	90	90	40	40	90	90
Cc1c(Cc2ccccc2N(S(C)(=O)=O)S(=O)(=O)C(F)(F)F)c(=O)on1C(C)(C)C [Compound 1-889]	90	90	90	90	90	90	90	90	90	90	90	90	40	40	90	90

From patent US11109593B2, “Isoxazolin-5-one derivative and herbicide containing same as active ingredient” (HOKKO CHEMICAL INDUSTRY CO., LTD., priority 2017, dated 2021)
